We go through twelve compounds from patent US20250215016A1, “ISOXAZOLE-HETEROCYCLIC DERIVATIVE, PHARMACEUTICAL COMPOSITION AND USE” (SHANGHAI SIMR BIOTECHNOLOGY CO., LTD, priority 2022, published 2025).

Each structure is given as a SMILES string.

In one series the target is α5-GABAA receptor (Homo sapiens (Human), UniProt P18507+P31644). Kind of series: Whole-cell patch clamp electrophysiology, inverse regulation activity in α5β3γ2-HEK293 cells. It counts as cell-based. To be noted: compound 100 nM; GABA 0.05-0.06 μM (about EC7-8); clamped at −60 mV; read-out: Inverse regulation efficiency to α5-GABAA receptor. From the text:
α, β and γ subunits are essential for the formation of a complete functional GABAA receptor. […] The specific subunit protein sequences are as follows: α5 subunit (protein sequence can be found in GenBank accession number: NM_000810.3); α2 subunit (protein sequence can be found in GenBank accession number: NM_000807.4); β3 subunit (protein sequence can be found in GenBank accession number: NM_000814.5); γ2 subunit (protein sequence can be found in GenBank accession number: NM_000816.3).
(§1) The above cell lines were subcultured. Amplification of α5β3γ2-HEK293 and α2β3γ2-HEK293 cells was used to test the affinity of the compounds to benzodiazepine site (BZD) of the GABAA receptor. During the passage of α5β3γ2-HEK293 cells, some of the suspended cells were spread on a glass slide pretreated with Poly-D-Lysine for electrophysiological testing.
The inverse regulation activity of the test drugs on α5-GABAA receptor was detected by an electrophysiological method. The specific method was as follows:
Compound concentration setting: the final concentration of the compounds used for compound screening was 100 nM. GABA concentration was 0.05-0.06 μM (about EC7-8). […] The extracellular fluid (ECS) ingredients for electrophysiology were as follows: 150 mM NaCl, 5 mM KCl, 2.5 mM CaCl2, 1 mM MgCl2, 10 mM HEPES and 10 mM glucose (pH 7.4); the electrode internal solution (ICS) formula for electrophysiology was as follows: 140 mM CsCl, 11 mM EGTA, 10 mM HEPES, 2 mM CaCl2, 1 mM MgCl2, 4 mM MgATP, 2 mM TEA (pH 7.3). The above reagents were all purchased from Sigma aldrich. GABA (γ-aminobutyric acid, from sigma aldrich, lot: A5385) powder was prepared into a stock solution with pure water and then diluted in ECS. The compound was first prepared into a 4 mM stock solution with DMSO, and then gradually diluted in corresponding concentrations of GABA-ECS. The solutions were all prepared fresh prior to electrophysiological testing.
Electrophysiological signal acquisition were performed by using EPC 10 amplifier and PatchMaster software (HEKA) or Axon 700 B amplifier and Clampex software (AXON). The recording electrode was made by drawing borosilicate glass (purchased from sutter), and has an electrode resistance of 4˜6 MΩ. Extracellular administration was carried out using ALA-VC-8PG (purchased from ALA, USA) system. A single independently grown cell was selected, and lysis was performed after the glass electrode and the cell forming a good seal, to form a whole cell mode. With the cellular membrane potential clamped at −60 mV, recording was carried out in the Gap-free mode. For the test, extracellular fluid was first applied extracellularly for about 20 seconds. After baseline (Iprebaseline) was stabilized, the extracellular fluid was switched to GABA-ECS. At this time, the current (Igaba) caused by GABA can be detected. At about 20-40 seconds, after the current stabilized, the extracellular fluid was switched to a mixed solution of the compound and GABA-ECS, until the current (Itreatment) caused by both the compound and GABA can be detected. Finally, the solution was switched to the extracellular fluid and the test was terminated after recording for 20-40 seconds.
The experimental results were analyzed using PatchMaster v2x90.1 or PatchMaster v2x90.3 software (EPC 10 amplifier) and Clampex10.6 software (Axon700B amplifier). The current value of each stage was calculated according to the average value of the stabilized current under the corresponding conditions. We defined the control current as Igaba−Iprebaseline, and the current after compound treatment as Itreatment−Iprebaseline. The inverse regulation activity of the compounds is expressed as a percentage and is calculated according to the following formula: Inverse regulation efficiency=[(Itreatment−Igaba)/(Igaba−Iprebaseline)]×100%.

The target of series [1] is human α5β3γ2 receptor (α5-GABAA receptor) (Homo sapiens (Human), UniProt P18507+P31644). Kind of series: Radioligand (3H-flunitrazepam) competition binding assay, BZD site. The following applies: 3H-flunitrazepam 1 nM; HEK293 membranes expressing human α5β3γ2.
Source text: α, β and γ subunits are essential for the formation of a complete functional GABAA receptor. In this example, HEK293 cell strains stably expressing human α5-GABAA receptor (comprising α5β3γ2 subunit) and α2-GABAA receptor (comprising α2β3γ2 subunit) were constructed and screened, respectively, by liposome transfection method (Felgner, P. L., et al., Proceedings of the National Academy of Sciences, 1987, 84:7413-7417). The specific subunit protein sequences are as follows: α5 subunit (protein sequence can be found in GenBank accession number: NM_000810.3); α2 subunit (protein sequence can be found in GenBank accession number: NM_000807.4); β3 subunit (protein sequence can be found in GenBank accession number: NM_000814.5); γ2 subunit (protein sequence can be found in GenBank accession number: NM_000816.3).
as §1
Flunitrazepam is a non-specific reagent that binds to the BZD site efficiently. The affinity of the compounds to the BZD sites of the human α5β3γ2 and α2β3γ2 receptors can be determined by competing the compound with ^3H-flunitrazepam (isotope ^3H-labeled flunitrazepam) for binding to these two receptors.
Membrane preparation: HEK293 cells stably expressing human α5β3γ2 receptor or α2β3γ2 receptor were collected, suspended in 50 mM Tris-HCl buffer (pH=7.4), homogenized on ice by a homogenizer for 20 seconds 10 times, and centrifuged at 4° C., 1000 g for 10 min. The supernatant was collected, and the above steps were repeated. The supernatant was centrifuged (33800 g; centrifuge purchased from Thermo, rotor model: A27-8×50) at 4° C. for 60 min, and the precipitate was resuspended in Tris buffer (50 mM Tris-HCl, 10 mM MgCl2, 0.5 mM EDTA, 10% glycerol). The precipitate was the cell membrane. Protein content was determined by BCA (Bicinchoninic Acid) method (BCA kit from Pierce (Annoron)). The cell membrane was prepared into 1 ml aliquot and stored at −80° C.
Radioligand competition binding assay: the assay was carried out in a 200 μL system (96-well plate from Agilent) with 100 μL of cell membrane. The concentration of ^3H-flunitazepam (from PerkinElmer, lot: NET567250 UC) was 1 nM and the concentration of test compound was in the range 1×10^−5-10^−6 M. Flumazenil (from Tocris; lot: 1318) was used as a control. 1 μL of 2 mM flumazenil (final concentration 10 μM) was added to the Low signal control well (Low control, LC) and 1 μL of DMSO (from Sigma aldrich, lot: 472301) was added to the High signal control well (High control, HC). The final target membrane protein concentration was 5 μg/well. All test compound sample stocks were 10 mM DMSO solutions. The working concentration of the samples is to dilute all samples with DMSO to 0.2 mM, and then perform 4-fold continuous gradient dilution for a total of 8 concentration gradients. The 96-well plate was sealed with a plate sealing membrane and then incubated on a shaker at room temperature for 1 hour. Meanwhile, GF/C filter plate was soaked with a plate soaking buffer (0.3% PEI, polyethyleneimine, purchased from Sigma aldrich, model: P314, stored at 4° C.) for at least 0.5 hours. After completion of binding incubation, the cells were collected with a cell collector onto the GF/C filter plate and washed four times with a plate washing buffer (50 mM Tris-HCl, pH 7.4, stored at 4° C.). […]

The nature of series [2]: Stability in simulated gastric fluid (SGF). To be noted: 37° C., 1000 rpm. It counts as physicochemical. On the procedure: Simulated gastric fluid (SGF), Manufacturer: Dongguan Chuangfeng Automation Technology Co., Ltd.; Product model: CF-006.
Oscillating constant temperature metal bath, Model: Thermo; Manufacturer: Digital Skaking Drybath.
Temperature: 37° C.; rotating speed: 1000 rpm; sampling time: 0, 4 hours.
Chromatographic column: Welch Xtimate C18 3.0×100 mm, 5 μm. Mobile phase: A: 0.04% trifluoroacetic acid (TFA)/H2O (v/v), B: acetonitrile (ACN). Gradient elution was performed according to the following table, flow rate: 1.0 mL/min; injection volume: 5 μL; column temperature: 35° C.; wavelength: 254 nm.
• (a) preparation of 0.04% TFA/H2O: 400 μL of TFA was measured, placed into 1 L of H2O, and homogenously mixed; • (b) Sample stock solution: about 3 mg of test sample was weighed, and prepared into a stock solution of 10 mmol/L using DMSO; • (c) 50 μL of the sample stock solution was taken, placed into a 5 mL volumetric flask, made up to the scale with the addition of SGF, and homogenously mixed. 400 μL of the solution was taken, four samples in parallel, and shaken at 1000 rpm and 37° C.; • (d) every two samples were taken after 0 and 4 hours respectively, 400 μL of acetonitrile was added, and homogenously mixed, followed by liquid phase injection, and calculation of the change % of the main peak area in the solution after 4 hours relative to 0 hour, two average value reports being taken at each time point.

On to `Cc1onc(-c2ccc(F)cc2)c1COc1ccc(-c2nnc3n2CCN(C)C3=O)cn1` [Compound 2, 3-(6-((3-(4-fluorophenyl)-5-methylisoxazol-4-yl)methoxy)pyridin-3-yl)-7-methyl-6,7-dihydro-[1,2,4]triazolo[4,3-a]pyrazin-8 (5H)-one], for which the inhibition at 0.1 µM on α5-GABAA receptor came to 29%. For the same compound, in series [1], the Ki turned out to be 7.7 nM. Moreover, in series [2], the “Residual content in simulated gastric juice after 4 hours (compared with 0 hour content)” value was 46% (4 hours).
The matching figures for `Cc1onc(-c2ccc(F)cc2)c1COc1cnc(-c2cnn3c2CCC3)cn1` [Compound 3]: 24%, 1.66 nM and 102% (4 hours).
For `Cc1onc(-c2ccc(F)cc2)c1COc1cnc(-c2nnc3n2CCN(C2CCC2)C3=O)cn1` [Compound 4, 7-cyclobutyl-3-(5-((3-(4-fluorophenyl)-5-methylisoxazol-4-yl)methoxy)pyrazin-2-yl)-6,7-dihydro-[1,2,4]triazolo[4,3-a]pyrazin-8(5H)-one], the “Residual content in simulated gastric juice after 4 hours (compared with 0 hour content)” value in series [2] is recorded as 89% (4 hours).
The same measure, in the same setting: in the case of `Cc1onc(-c2ccc(F)cc2)c1COc1cnc(-c2cc3n(c(=O)n2)CC24CC(CN32)C4)cn1` [Compound 9, 3-(5-((3-(4-fluorophenyl)-5-methylisoxazol-4-yl)methoxy)pyrazin-2-yl)-7,8-dihydro-1H,6H,9H-7,8a-methanopyrrolo[1′,2′:3.4]imidazo[1,2-c]pyrimidin-1-one] it was 64% (4 hours).
Turning to `Cc1onc(-c2ccc(F)cc2)c1COc1cnc(-c2nnn3c2COCC3)cn1` [Compound 12, 3-(5-((3-(4-fluorophenyl)-5-methylisoxazol-4-yl)methoxy)pyrazin-2-yl)-6,7-dihydro-4H-[1,2,3]triazolo[5,1-c][1,4]oxazine], the inhibition at 0.1 µM on α5-GABAA receptor was 24%. This compound also yielded a Ki in series [1] of 2.6 nM. Moreover, the “Residual content in simulated gastric juice after 4 hours (compared with 0 hour content)” value in series [2] is listed as 93% (4 hours).
The matching figures for `Cc1onc(-c2ccc(F)cc2)c1COc1cnc(-c2nnc3n2CCN(C)C3)cn1` [Compound 16]: 15%, 6.93 nM and 76% (4 hours).
In the case of `Cc1onc(-c2ccc(F)cc2)c1COc1cnc(N2CCn3c(nnc3C(F)(F)F)C2=O)cn1` [Compound 26, 7-(5-((3-(4-fluorophenyl)-5-methylisoxazol-4-yl)methoxy)pyrazin-2-yl)-3-(trifluoromethyl)-6,7-dihydro-[1,2,4]triazolo[4,3-a]pyrazin-8(5H)-one], in series [2], the “Residual content in simulated gastric juice after 4 hours (compared with 0 hour content)” value is given as 80% (4 hours).
Still for that read-out and setting: next, `Cc1onc(-c2ccc(F)cc2)c1COc1cnc(N2CCn3cccc3C2=O)cn1` [Compound 45, 2-(5-((3-(4-fluorophenyl)-5-methylisoxazol-4-yl)methoxy)pyrazin-2-yl)-3,4-dihydropyrrolo [1,2-a]pyrazin-1(2H)-one]: 87% (4 hours).
In the case of `Cc1onc(-c2ccc(F)cc2)c1COc1cnc(-c2cc3n(c(=O)n2)CCN3C)cn1` [Compound 47, 7-(5-((3-(4-fluorophenyl)-5-methylisoxazol-4-yl)methoxy)pyrazin-2-yl)-1-methyl-2,3-dihydroimidazo[1,2-c]pyrimidin-5(1H)-one], the inhibition at 0.1 µM on α5-GABAA receptor was determined as 31%. Also, in series [2], the “Residual content in simulated gastric juice after 4 hours (compared with 0 hour content)” value is given as 82% (4 hours).
As to `Cc1onc(-c2ccc(F)cc2)c1COc1ccc(C(=O)NC2CCOCC2)cn1` [WO2009071476, Example 109, reference compound], in series [2], the “Residual content in simulated gastric juice after 4 hours (compared with 0 hour content)” value is recorded as 15% (4 hours).
As to `Cc1onc(-c2ccc(F)cc2)c1COc1ccc(C(=O)N2CCS(=O)(=O)CC2)cn1` [WO2009071476, Example 112, reference compound], in series [2], the “Residual content in simulated gastric juice after 4 hours (compared with 0 hour content)” value is 2% (4 hours).
Same read-out and setting: next, `Cc1onc(-c2ccc(F)cc2)c1COc1ccc(C(=O)NC2CCOCC2)nn1` [WO2009071477, Example 63, reference compound]: 0% (4 hours).
